Laboratory results taken from patent publication US20260240683A1, “MOLECULAR LINKERS” (CWAN TECHNOLOGIES PTY LTD, priority 2023, published 2026).

Key:
[1] = Diffusion into thermally gelled 12% gelatin gel disc (A452 read-out), model corneal stroma; type: physicochemical
Experimental: A 12% Gelatin (Sigma G1890) Type A, 300 Bloom solution was prepared in PBS (pH7.4) by melting at 50° C. 60 μL was added to an 8.5 mm (diameter)×1 mm (deep) round Teflon mould. The Gelatin was allowed to set thermally for 10 min at 18.5° C. At 10 min, 60 μL 0.5 mM Ru(bpy)3 (0.5 mM solution in PBS) is added to the top of the thermally gelled 12% gelatin disc. The gelatin disc was covered with foil during diffusion time. Excess solution was blotted from the top of the gel using a Kimwipe. Remove gelled disc using spatula, add to 940 μL of PBS @55° C. Melt gel (30 sec)—add solution to cuvette, read A452.
If diffusion is expressed as a percentage of the total disc volume equilibrated with the applied 0.5 mM Ru(bpy)3 solution, then, assuming total mixing of the applied 60 μL solution with the 60 μL gelatin disc, 100% diffusion would represent an A452 of 0.205 [0.221−0.016=gelatin−PBS blank)]. So, diffusion to 30% of the hydrogel depth/thickness (in this case representing ca. 300 μm) would be attained in about 2.3 min. This is the desired depth of penetration of a crosslinking agent in the human cornea (by comparison with Riboflavin-based CXL methods, which require 30 minutes of diffusion).

[2] = Riboflavin solubility at 0.1% in PBS; type: physicochemical
[3] = Ru(bpy)3 diffusion through debrided bovine cadaver corneal stroma; type: in vitro ADME; settings: PBS solution containing 0.5 mM Ru(bpy)3; 800 μm thick bovine cadaver corneal stroma; within 6 minutes
Experimental: 10 fresh bull eyes were obtained from an abattoir (<10 hours old, stored at 4° C.). Using a digital caliper, the thickness of the corneas was determined to be within the range of 740 μm to 820 μm. The epithelium of the eyes was debrided with an 8 mm biopsy punch and scraped-off with a scalpel blade.
[…] Excess Ru(bpy)3 solution was removed by blotting using a fresh Kimwipe tissue.
Corneas were frozen on the surface of an aluminium block at −20° C. for 2 minutes (FIG. 7B). Transverse (bisecting) cross-sections of cornea were prepared by cutting a 1 mm thick section using a razor blade. The corneal cross-section was mounted on a glass slide to allow visualization of the cross-sectional area of the corneal stroma (FIG. 7C). Ru(bpy)3 was visualized through a red filter with illumination with a 450 nm LED light (FIG. 7).
The rate of diffusion of Ru(bpy)3 through both fresh bovine cadaver corneal stroma and through a thermally gelled 12% gelatin hydrogel (as a model corneal stromal matrix), was studied.

[4] = Photochemical crosslinking of corneal stroma using 3D template mould; design: species or system bovine; settings: 300 μL, 10 min diffusion, 20 sec 450 nm blue LED at 1 cm; 1 mM Ru(bpy)3 with or without 50 mM SPS
Experimental: The entire epithelium was debrided from a cornea. 300 μL of 1 mM Ru(bpy)3+50 mM SPS was applied to the anterior corneal surface for a diffusion time of 10 minutes (FIG. 9A). The cornea was wrapped over a metal piping nozzle, acting as a mould, and irradiated for 20 seconds using 450 nm blue LED dental lamp at a distance of 1 cm from the light guide tip (FIG. 9B).
A cornea was subject to the crosslinking protocol described in Example 3A, except that sodium persulphate (SPS) was omitted. […] In its absence, singlet oxygen radical production by short (20 sec) blue light irradiation of Ru(bpy)3 in aqueous solution is insufficient to cause any measurable covalent crosslinking of endogenous stromal proteins. In contrast, in its presence, crosslinking of endogenous corneal proteins and “molecular linkers” occurs rapidly and quantitatively.

[5] = Diffusion of Ru(bpy)3+SPS and photochemical crosslinking of 1 mm 12% gelatin hydrogel (weight after 65° C. melt); type: physicochemical
Experimental: Method: 12% Gelatin (Sigma G1890) Type A 300 Bloom in PBS (pH 7.4), was melted at 50° C. and 60 μL added to an 8.5 mm (diameter) disc×1 mm (deep) Teflon mould. The gelatin was allowed to set thermally for 10 min at 18.5° C. 60 μL of Ru(bpy)3/SPS solution (either a 0.5 mM Ru(bpy)3+50 mM SPS; a 1.0 mM Ru(bpy)3+50 mM SPS or a 2.0 mM Ru(bpy)3+50 mM SPS) was added and allowed to diffuse into the gel disc for varying times (0, 2, 4, 6, 8, 10, 14 min). Excess liquid was blotted from the top surface of the mould. At the end point of the diffusion period, the thermally set gelatin hydrogel was illuminated using a 3M ESPE blue LED lamp (1,200 mW/cm^2) for 5 sec at 1 cm distance from the light guide tip. The crosslinked gelatin hydrogel was weighed on a microbalance before being placed into a 65° C. water bath for 30 sec. Excess liquid was removed from the crosslinked hydrogel and it was again weighed to measure residual crosslinked gelatin hydrogel. A plot was prepared showing % crosslinked gelatin vs diffusion time (zero to 14 min).
Aim: To determine the time required for a solution containing Ru(bpy)3+SPS to diffuse through a 1 mm thick sheet of thermally-gelled gelatin and then to form covalent crosslinks between gelatin molecules, thus rendering the hydrogel resistant to subsequent melting at high temperature. […]

SMILES	rate of diffusion through 12% gelatin hydrogel compared with 0.5 mM Ru(bpy)3 solution ([1]; Riboflavin 0.1% (2.6 mM))	solubility at 0.1% (2.6 mM) ([2]; PBS (pH 7.4))	solubility at 0.1% (2.6 mM) ([2]; PBS with NaOH added, pH ca. 8.5, RT)	time to diffuse to 30% of the hydrogel depth/thickness (ca. 300 μm) ([1]; 0.5 mM Ru(bpy)3 in PBS, 60 μL on 1 mm deep 12% gelatin disc)	depth of free diffusion through corneal stroma [3]	formation of templated 3D structure of cornea after photo-crosslinking on mould [4]	time to diffuse through the entire 1.0 mm thickness of 12% (w/v) gelatin hydrogel ([5]; Ru(bpy)3+50 mM SPS solutions (0.5, 1.0, 2.0 mM))	covalent crosslinking of gelatin hydrogel after the diffusion step ([5]; Ru(bpy)3+SPS, 5 second illumination with 450 nm blue LED lamp)
Cc1cc2nc3c(=O)[nH]c(=O)nc-3n(C[C@H](O)[C@H](O)[C@H](O)CO)c2cc1C [Riboflavin, riboflavin]	slightly slower	=2.6 mM in PBS (pH 7.4) - not fully soluble in PBS*	*Added 1 μL of 10N NaOH to 2 ml of 0.1% solution in PBS - took pH to ca. 8.5 (by pH paper test). Riboflavin solution was now fully soluble at 0.1% (2.6 mM) at RT.	–	–	–	–	–
[Cl-].[Cl-].[Ru+2].c1ccc(-c2ccccn2)nc1.c1ccc(-c2ccccn2)nc1.c1ccc(-c2ccccn2)nc1 [Ru(bpy)3, ruthenium (tris)bipyridyl chloride]	–	–	–	about 2.3 min	400 μm	no mould template structure was formed	≤ 6 min	entire gelatin hydrogel can be covalently crosslinked
